One series deals with RANTES. Description: RANTES release into basal medium (ELISA). The series is classed as cell-based, human. In general terms: ELISA stands for enzyme-linked immunosorbent assay.
The test system of the next series is Interleukin 8 (IL-8). Briefly: Interleukin 8 release into basal medium (ELISA). The class given is cell-based, human.
For series [1], the system named is MucilAir nasal human 3D Epithelial model.
A further series has as its system HRV-A16. Description: Viral genome copy number (quantitative RT-PCR of apical washes) in HRV-A16-infected MucilAir nasal epithelia (Example 5). The class given is cell-based, human rhinovirus. The following applies: twice daily apical, rupintrivir 5 μM basal.
For a further series, the system named is HRV-B14. Description: Viral genome copy number (quantitative RT-PCR of apical washes) in HRV-B14-infected MucilAir nasal epithelia (Example 6). The class given is cell-based, human rhinovirus. The following applies: for Mean Log 10 ((Copies/ml) + 1), viral genome copy number: 5 μM, positive antiviral control.
The test system of series [2] is MucilAir nasal human 3D Epithelial model. The following applies: Examples 2 and 4 (RSV A experiments); all measured timepoints.
In a further series the test system is HRV-C15. Description: Viral genome copy number (quantitative RT-PCR of apical washes) in HRV-C15-infected MucilAir nasal epithelia (Examples 1 and 3). The series is classed as cell-based, human rhinovirus. The following applies: for effect on RV-C15 replication (in words): rupintrivir basal, comparison of fucoidan sources.
The subject of series [3] is MucilAir nasal human 3D Epithelial model. Briefly: Mucociliary clearance (MCC), bead velocity. The series is classed as cell-based. The following applies: Example 4; day 4; once or twice daily; ribavirin basal.
For series [4], the system named is respiratory syncytial virus A. The class given is cell-based. The following applies: RSV A.
The test system of series [5] is MucilAir nasal human 3D Epithelial model. Description: Cilia beating frequency (CBF). The series is classed as cell-based. The following applies: Example 4; day 4; once or twice daily; ribavirin basal.
The mark [6] stands for this setting: Example 4, once or twice daily (25 μg Test UP: see once daily exception), ribavirin basal.

“And” between values parts separate entries of the source, which are not always exact repeats. Identical values can stand only once. Like-named read-outs stand apart in the source and are kept apart here.

As for `CCOC(=O)/C=C/[C@H](C[C@@H]1CCNC1=O)NC(=O)[C@@H](CC(=O)[C@@H](NC(=O)c1cc(C)on1)C(C)C)Cc1ccc(F)cc1` [Rupintrivir], the “effect on virus-induced increase of RANTES release (in words)” value in the series with RANTES (Example 3, RV-C15, rupintrivir basal) is listed as “effectively prevented the virus-induced increase of RANTES release”. Also, the “effect on RV-C15 induced IL-8 release (in words)” value in the series with Interleukin 8 (IL-8) (Example 1, HRV-C15-inoculated inserts, day 4 post infection) is reported as “prevented”. Further, the “effect on RSV A induced IL-8 release (in words)” value in the series with Interleukin 8 (IL-8) (Example 2, RSV A-inoculated inserts, day 2 and day 4 as stated) is listed as “prevented”. Besides, the “effect on HRV-C15 induced transient TEER decrease (in words)” value in series [1] (Example 1, HRV-C15-inoculated inserts, apical or basal as in label) is “prevented this transient TEER decrease”. For the same compound, the “TEER of inoculated inserts” value in series [1] (Example 3, HRV-C15-inoculated inserts) was “above 100 Ω·cm^2”. In addition, the “Mean viral genome copy number” value in the series with HRV-A16 (3.5 hours post infection, 0.00 = below detection limit) was 0.00 Log 10 ((Copies/ml) + 1); with HRV-A16 (24 hours post infection, 0.00 = below detection limit), 0.00 Log 10 ((Copies/ml) + 1); in the series on HRV-A16 (48 hours post infection, 0.00 = below detection limit) it was 4.70 Log 10 ((Copies/ml) + 1); with HRV-A16 (72 hours post infection, 0.00 = below detection limit), 5.30 Log 10 ((Copies/ml) + 1); in the series with HRV-A16 (96 hours post infection) it was 3.77 Log 10 ((Copies/ml) + 1); in the series on HRV-C15 (Example 1, HRV-C15, 3.5 hours post infection, AP apical / BL basal as in label, rupintrivir 5 μM basal, 0.00 = below detection limit), 0.00 Log 10 ((Copies/ml) + 1). In addition, the “Mean viral genome copy number” value in the series on HRV-C15 (Example 1, HRV-C15, 24 hours post infection, AP apical / BL basal as in label, rupintrivir 5 μM basal, 0.00 = below detection limit) is given as 5.57 Log 10 ((Copies/ml) + 1); with HRV-C15 (Example 1, HRV-C15, 48 hours post infection, AP apical / BL basal as in label, rupintrivir 5 μM basal), 6.46 Log 10 ((Copies/ml) + 1); with HRV-C15 (Example 1, HRV-C15, 72 hours post infection, AP apical / BL basal as in label, rupintrivir 5 μM basal) it was 6.69 Log 10 ((Copies/ml) + 1); in the series with HRV-C15 (Example 1, HRV-C15, 96 hours post infection, AP apical / BL basal as in label, rupintrivir 5 μM basal) it was 7.17 Log 10 ((Copies/ml) + 1). Further, the “Mean Log 10 ((Copies/ml) + 1), viral genome copy number” value in the series on HRV-B14 (time 3.5 h) is 0.00 Log 10 ((Copies/ml) + 1); in the series on HRV-B14 (time 24 h) it was 3.65 Log 10 ((Copies/ml) + 1); in the series on HRV-B14 (time 48 h), 4.23 Log 10 ((Copies/ml) + 1); with HRV-B14 (time 72 h), 4.26 Log 10 ((Copies/ml) + 1); in the series on HRV-B14 (time 96 h), 0.00 Log 10 ((Copies/ml) + 1). The “detection of virus (in words)” value in the series on HRV-B14 (RV-B14, Day 4) is on record as “no more virus was detected”. Moreover, in series [2], the “cytotoxicity (LDH, Triton X-100 = 100%)” value is “below 5%”. In addition, the “decrease of the viral load” value in the series with HRV-C15 (Example 1, HRV-C15, rupintrivir 5 μM basal, on average) is “two”. Moreover, the “effect on RV-C15 replication (in words)” value with HRV-C15 (Example 3) is given as “most effective inhibitor of RV-C15 replication”; with HRV-C15 (Example 3, listed as rupintrivir) it was “significantly reduced viral genome copy number”.
As for `NC(=O)c1ncn([C@@H]2O[C@H](CO)[C@@H](O)[C@H]2O)n1` [Ribavirin, ribavirin], in series [3], the “effect on RSV A induced MCC reduction (in words)” value was “attenuated this RSV A induced MCC reduction”. In the series with RANTES (setting [6]), the “effect on RSV A-induced RANTES release (in words)” value is listed as “effectively prevented the virus-induced increase of RANTES release”. The “Mean viral genome copy number” value is 5.63 Log 10 ((Copies/ml) + 1) and 3.52 Log 10 ((Copies/ml) + 1) in series [4] (Example 2, 3.5 hours post infection, AP apical / BL basal as in label, ribavirin 100 uM basal, 0.00 = below detection limit); 6.48 Log 10 ((Copies/ml) + 1) and 10.22 Log 10 ((Copies/ml) + 1) in [4] (Example 2, 24 hours post infection, AP apical / BL basal as in label, ribavirin 100 uM basal, 0.00 = below detection limit); 7.07 Log 10 ((Copies/ml) + 1) and 11.46 Log 10 ((Copies/ml) + 1) in series [4] (Example 2, 48 hours post infection, AP apical / BL basal as in label, ribavirin 100 uM basal); 7.78 Log 10 ((Copies/ml) + 1) and 10.33 Log 10 ((Copies/ml) + 1) in [4] (Example 2, 72 hours post infection, AP apical / BL basal as in label, ribavirin 100 uM basal); 8.32 Log 10 ((Copies/ml) + 1) and 9.09 Log 10 ((Copies/ml) + 1) in series [4] (Example 2, 96 hours post infection, AP apical / BL basal as in label, ribavirin 100 uM basal); 6.76 Log 10 ((Copies/ml) + 1) in [4] (Example 4, 3.5 hours post infection, first block of Table 12, 1x (once daily apical), ribavirin 100 μM basal). Moreover, the “Mean viral genome copy number” value in series [4] (Example 4, 3.5 hours post infection, second block of Table 12, head prints 1x, ribavirin 100 μM basal) is on record as 6.76 Log 10 ((Copies/ml) + 1); in [4] (Example 4, 24 hours post infection, first block of Table 12, 1x (once daily apical), ribavirin 100 μM basal), 7.06 Log 10 ((Copies/ml) + 1); in series [4] (Example 4, 24 hours post infection, second block of Table 12, head prints 1x, ribavirin 100 μM basal) it was 7.06 Log 10 ((Copies/ml) + 1); in [4] (Example 4, 48 hours post infection, first block of Table 12, 1x (once daily apical), ribavirin 100 μM basal), 6.79 Log 10 ((Copies/ml) + 1); in [4] (Example 4, 48 hours post infection, second block of Table 12, head prints 1x, ribavirin 100 μM basal), 6.79 Log 10 ((Copies/ml) + 1); in series [4] (Example 4, 72 hours post infection, first block of Table 12, 1x (once daily apical), ribavirin 100 μM basal), 7.40 Log 10 ((Copies/ml) + 1). Besides, the “Mean viral genome copy number” value in series [4] (Example 4, 72 hours post infection, second block of Table 12, head prints 1x, ribavirin 100 μM basal) is 7.40 Log 10 ((Copies/ml) + 1); in [4] (Example 4, 96 hours post infection, first block of Table 12, 1x (once daily apical), ribavirin 100 μM basal), 8.89 Log 10 ((Copies/ml) + 1); in series [4] (Example 4, 96 hours post infection, second block of Table 12, head prints 1x, ribavirin 100 μM basal) it was 8.89 Log 10 ((Copies/ml) + 1); in the series on HRV-C15 (Example 3, HRV-C15, 3.5 hours post infection, 1x (once daily apical), positive control basal, 0.00 = below detection limit), 0.00 Log 10 ((Copies/ml) + 1); in the series with HRV-C15 (Example 3, HRV-C15, 3.5 hours post infection, 2x (twice daily apical), positive control basal, 0.00 = below detection limit), 0.00 Log 10 ((Copies/ml) + 1); in the series with HRV-C15 (Example 3, HRV-C15, 24 hours post infection, 1x (once daily apical), positive control basal) it was 5.14 Log 10 ((Copies/ml) + 1). Further, the “Mean viral genome copy number” value is on record as 5.14 Log 10 ((Copies/ml) + 1) with HRV-C15 (Example 3, HRV-C15, 24 hours post infection, 2x (twice daily apical), positive control basal); 7.63 Log 10 ((Copies/ml) + 1) with HRV-C15 (Example 3, HRV-C15, 48 hours post infection, 1x (once daily apical), positive control basal); 7.63 Log 10 ((Copies/ml) + 1) in the series with HRV-C15 (Example 3, HRV-C15, 48 hours post infection, 2x (twice daily apical), positive control basal); 6.89 Log 10 ((Copies/ml) + 1) in the series with HRV-C15 (Example 3, HRV-C15, 72 hours post infection, 1x (once daily apical), positive control basal); 6.89 Log 10 ((Copies/ml) + 1) with HRV-C15 (Example 3, HRV-C15, 72 hours post infection, 2x (twice daily apical), positive control basal); 6.24 Log 10 ((Copies/ml) + 1) in the series on HRV-C15 (Example 3, HRV-C15, 96 hours post infection, 1x (once daily apical), positive control basal). Further, the “Mean viral genome copy number” value in the series with HRV-C15 (Example 3, HRV-C15, 96 hours post infection, 2x (twice daily apical), positive control basal) is recorded as 6.24 Log 10 ((Copies/ml) + 1). Besides, the “decrease of the viral load” value in series [4] (Example 2, ribavirin 100 μM basal) is given as 3 logs. Further, in the series with Interleukin 8 (IL-8) (setting [6]), the “effect on RSV A induced IL-8 release (in words)” value was “prevented the RSV A induced IL-8 release”. Besides, the “effect on RSV A induced cilia impairment (in words)” value in series [5] is listed as “prevented”. In addition, in series [1] (Example 4, RSV A-inoculated inserts, once or twice daily, ribavirin basal), the “TEER of inoculated inserts (in words)” value is given as “TEER values similar to that of the mock inserts”.
On to “Polyethylene glycol tert-octyl phenyl ether [Triton X-100]”, for which the TEER result in [1] (positive control for cytotoxicity, 10% (v/v) in normal saline, 50 μl apically, Examples 1 to 4) was “below 100 Ω·cm^2”.

These data come from US20230241098A1, “ANTIVIRAL PHARMACEUTICAL COMPOSITION” (priority 2020, published 2023).
